# According to US20240156790A1, “COMPOUNDS, COMPOSITIONS, AND METHODS FOR MODULATING FERROPTOSIS AND TREATING EXCITOTOXIC DISORDERS” (THE TRUSTEES OF COLUMBIA UNIVERSITY IN THE CITY OF NEW YORK, priority 2018, published 2024):
# Key:
# [1] = Plasma stability, rat (Table 1); format: in vitro ADME
# [2] = Plasma stability, human (Table 1); format: in vitro ADME
# [3] = Microsomal stability, dog (Table 1); format: in vitro ADME; conditions: Dog: Beagle
# Method: Each compound (1 μM) is incubated with mouse plasma, for 4 hours at 37° C., with shaking at 100 rpm. The concentration of compound in the buffer and plasma chambers is determined using LC-MS/MS. Metabolism of each compound is predicted using Sites of Metabolism (Schrodinger Suite), which combines intrinsic reactivity analysis (Hammett-Taft) with induced fit docking against 2C9, 2D6 and 3A4. This approach identifies 90% of known metabolism sites and has a false positive rate of 17%. The in vitro metabolic stability of each compound in mouse liver microsomes is determined. Pooled mouse liver microsomes are prepared and stored at −80° C. until needed. Compound stability in liver microsomes is measured at 0, 15, 30, 45 and 60 minutes in duplicate, using LC-MS/MS analysis.
# [4] = PHB4082 IP PK Study (plasma, brain, liver, kidney); format: in vivo, C57BL/6 mice
# Method: C57BL/6 mice (8-weeks of age and ˜25 g weight) were weighed before injection and divided into groups of two male and female mice per cage. PHB4082 was dissolved in 5% DMSO/95% of 65% v/v of 25% w/v 2-hydroxypropyl-3-cyclodextrin (Cayman Chemical) dissolved in 20% EtOH, 30% v/v Poly(ethylene glycol)-400 (Sigma Aldrich 202398), 5% v/v Tween 80 (Fluka 59924) to create a 2 mg/mL Solution. The same formulation without PHB4082 was used as a vehicle control. The solution was sterilized using a […] Steriflip filter unit (Thomas Scientific 1189Q46) and stored at 4° C. Mice were dosed IP and euthanized by CO2 asphyxiation for 3 min at 0, 1, 2, 4, and 8 h after administration. To ensure that the vehicle was well-tolerated, four mice were treated with vehicle and euthanized 4 h after administration. ˜0.5 mL of blood was collected via cardiac puncture and immediately put in K3 EDTA microtubes ([…] 41.1504.105) and kept on ice. Organs were harvested, placed in Eppendorf tubes, and frozen on dry ice. Blood samples were centrifuged for 10 min at 2,100×g at 4° C., then plasma was transferred to a clean tube and frozen on dry ice. Organ samples were weighed and placed in hard tissue homogenizing tubes (Omni International 19-628) and a volume of DEPC-treated nuclease-free water (IBI Scientific IB42200) was added to make a 500 mg/mL solution and homogenized using the Omni Bead Ruptor 4 at speed 5 for 30 seconds. PHB4082 was extracted from plasma or organ homogenate by adding 900 μL acetonitrile to 100 μL plasma or organ homogenate. Samples were mixed by vortexing and allowed to extract overnight at 4° C. prior to mixing for at least 5 min by rotating at room temperature, vortexing, and sonicating for at least 30 second prior to centrifugation for 10 min at 4,000×g and 4° C. The supernatant was then transferred to a glass vial and dried under nitrogen. After drying, the samples were resuspended in 100 μL of methanol and analyzed by UPLC-MS described below. The concentration of PHB4082 was determined against a standard curve with a linear fit and the data plot in GraphPad Prism 9 and fit with a one phase decay.
# To evaluate whether PHB4082 was a suitable candidate for in vivo studies, we performed a pharmacokinetic study of PHB4082 in C57BL/6 mice at ˜8 weeks of age. To evaluate sex-specific effects on compound metabolism, two male and two female mice were used for each condition. Mice were dosed at 20 mg/kg via intraperitoneal (IP) injection and the injection volume ranged from 180 uL to 300 uL based on different body weights. […] Extracts were analyzed via UPLC-MS and the concentration of compound determined against a standard curve ran concurrently with samples.
smiles,measurement,setting,value
"CCOC(=O)c1ccc(NC2CCCCC2)c(N)c1 [Fer-1, Ferrostatin-1, reference compound]",Plasma Stability at six hours (% remaining),[1],0-4%
same,Plasma Stability at six hours (% remaining),[2],100%
same,"Microsomal Stability, % remaining t = 120",[3],49.5 ± 9.6%
"Cc1noc(-c2ccc(NC3CCCCC3)c(NC3CCCCC3)c2)n1 [PHB4082, N1,N2-dicyclohexyl-4-(3-methyl-1,2,4-oxadiazol-5-yl)benzene-1,2-diamine]",accumulation in plasma and brain,[4]; 20 mg/kg IP,~100 nM
same,"tissue accumulation, in words",[4]; IP,stably accumulates in mouse kidney with minimal accumulation observed in brain
same,concentration in brain,[4]; PK study of PHB4082,around 200 nM
same,concentration at 8 h,"[4]; both sexes, C57BL/6, mouse, kidney, intraperitoneal, 20 mg/kg IP, at eight hours",1800 nM
